The values that follow come from publication PMC10215143, “D- and N-Methyl Amino Acids for Modulating the Therapeutic Properties of Antimicrobial Peptides and Lipopeptides” (Antibiotics, 2023).

The structures appear in SMILES notation. Values after ≈ are worked out from the molar mass of the structure shown. Where a SMILES comes first, the peptide text is derived from it. [ ]: non-standard residue; d: D form. The star is where a group is joined. Decanoyl = CCCCCCCCCC(=O)* Some results are limits rather than exact numbers.

One data set has as its system C. tropicalis DBFIQ 3. The class given is cell-based, Candida tropicalis. Conditions: DBFIQ 3, 24 h. How it is done:
(§1) Each inoculum was taken and the cellular concentration was adjusted to 2 × 10^3 CFU/mL in Sabouraud Dextrose Broth (SDB) (Biokar Diagnostics, Cedex, France). Next, 50 µL of these inocula was added to 50 µL of peptide solution in serial 2-fold dilutions. […] […] The test was conducted in triplicate.

For data set [1], the system named is S. aureus RM * SA1 (Methicillin-resistant Staphylococcus aureus). The settings on record: S. aureus RM * SA1 (MRSA).
For the next data set, the system named is P. aeruginosa ATCC 27853. It is filed as cell-based, Pseudomonas aeruginosa. Conditions: ATCC 27853, 24 h. The protocol: (§2) The test was conducted in triplicate.
A further data set concerns trypsin. The settings on record: after 7 h of treatment.
Another data set relates to C. albicans PEEC 2. It is filed as cell-based, Candida albicans. Conditions: PEEC 2, 24 h. How it is done:
as §1

In the next data set the test system is Yeast. How it is done:
Each inoculum was taken and the cellular concentration was adjusted to 2 × 10^3 CFU/mL in Sabouraud Dextrose Broth (SDB) (Biokar Diagnostics, Cedex, France). Next, 50 µL of these inocula was added to 50 µL of peptide solution in serial 2-fold dilutions. […] The MIC was considered the lowest peptide concentration that inhibited visible growth of each yeast strain. The test was conducted in triplicate.
(§3) The TI is defined as the relationship between the concentration that caused 50% of hemolysis (HC50) or a 50% reduction in HeLa cell viability and the MIC. Thus, higher TI values indicate greater antimicrobial specificity. […] The average MIC for each peptide against different microorganism groups was used to calculate the TI value.

A further data set deals with HeLa cells. The settings on record: 24 h. How it is done:
We assessed the cytotoxicity of the compounds synthesized using HeLa cells.
The 3–4,5-dimethylthiazol-2,5-biphenyl tetrazolium bromide (MTT) cell viability assay was used to assess the cytotoxic activity of synthetic compounds against the human HeLa line. HeLa cells were seeded in 96-well plates at 1 × 10^5 cells/well, in which the peptide solution was added at different concentrations (3.125–400 μM) for 24 h of incubation. Next, MTT reagent (Sigma-Aldrich, St. Louis, MO, USA) was added, and the cells were incubated for 2 h. Then, 100 μL of dimethylsulfoxide (DMSO) was added to each well to dissolve formazan crystals, and the plates were read at 595 nm.

The next data set has as its system Human erythrocytes. Briefly: Hemolysis assay. The class given is cell-based. Conditions: human erythrocytes 0.4% (v/v), 37 °C, 60 min, 6.25 to 400 µM. How it is done:
Hemolytic activity was determined using red blood cells and the hemoglobin released was measured at 405 nm. The percentage of hemolysis corresponding to the synthetic compounds is shown in Figure 1 while the HC50 values are provided in Table 3. […] Substitutions by N-methyl and D-amino acids reduced the hemolytic activity of the peptides and lipopeptides. […] For all the peptides and most of the lipopeptides, the HC50 values exceeded 400 μM. Indeed, the HC50 values were lower only for C10:0-A2(9-NMeLys) and C10:0-A2, which were around 300 and 200 μM, respectively.
Erythrocyte lysis was determined using the following previously optimized protocols. Human erythrocytes from a healthy voluntary donor were isolated by centrifugation (3000 rpm for 10 min) after washing three times with Physiological Solution (PS). Erythrocyte solutions were prepared at a concentration of 0.4% (v/v) in PS. Test tubes containing 200 µL of erythrocyte solution were incubated at 37 °C for 60 min with 200 µL of peptide solution at concentrations ranging from 6.25 to 400 µM. After centrifugation at 3000 rpm for 5 min, supernatant absorbance was measured at 405 nm. Lysis induced by 1% Triton X-100 was taken as a 100% reference value.

The next data set concerns Gram (−) bacteria. The protocol:
(§4) The MIC against bacterial strains was determined by the modified broth microtiter dilution method, following the procedures proposed by R.E.W. Hancock Laboratory for testing antimicrobial peptides. The target strains Escherichia coli ATCC 35218, Pseudomonas aeruginosa ATCC 27853, Enterococcus faecalis ATCC 29212, and Staphylococcus aureus ATCC 25923 belong to the American Type Culture Collection (ATCC). The Methicillin-Resistant Staphylococcus aureus BSF FBCB1313 strain (MRSA) was provided by the Clinical Bacteriology Section of FBCB-UNL. All strains were activated by culture for 24 h at 37 °C in Mueller-Hinton Broth (MHB) (Biokar Diagnostics, Cedex, France). Each inoculum was taken and adjusted to a cellular concentration of 5 × 10^5 colony-forming units (CFU)/mL in diluted MHB. All the peptides were dissolved in bovine serum albumin buffer with the addition of 0.01% acetic acid; 100 µL of each inoculum was added to 11 µL of peptide solution in serial 2-fold dilutions and were incubated for 18–24 h at 37 °C. The MIC was the lowest peptide concentration that inhibited visible growth of each bacterial strain. The test was conducted in triplicate.
as §3

In another data set the test system is Gram (+) bacteria. The protocol: as §4, §3
For another data set, the system named is E. faecalis ATCC 29212. It is filed as cell-based, Enterococcus faecalis. Conditions: E. faecalis ATCC 29212. How it is done: as §2
The next data set has as its system S. aureus ATCC 25923. The class given is cell-based, Staphylococcus aureus. Conditions: S. aureus ATCC 25923. The protocol: as §2
For a further data set, the system named is E. coli ATCC 35218. The class given is cell-based, Escherichia coli. The settings on record: ATCC 35218, 24 h. The protocol:
as §2

Setting [2] is: first value of the cell, a single value holds for HC50 and IC50 (400 µM used).

Experimental for chymotrypsin: The enzymatic stability of the peptides and lipopeptides was determined by measuring residual antimicrobial activity using the agar diffusion method [42]. To this end, 60 µL of the peptide (treated and untreated) in phosphate buffer (0.1 mM pH: 5.5) was added to a 7 mm well on an agar plate previously seeded with 1 mL of a fresh culture of S. aureus ATCC 25923. The plates were incubated for between 18 and 24 h at 37 °C, and then the inhibition halo diameter was measured. The test was conducted in duplicate.

One may read the MIC as the smallest concentration in the dilution series that meets the test's criterion for growth inhibition. For orientation: IC50 means the concentration needed to halve the response being measured. Low readings indicate higher potency, high ones lower potency. Consider `CCCCCCCCCC(=O)N[C@H](C(=O)N[C@H](CCCCN)C(=O)N[C@@H](CCC(N)=O)C(=O)N[C@H](C(=O)N[C@H](CCCCN)C(=O)N[C@H](CCCCN)C(=O)N[C@@H](CC(C)C)C(=O)N[C@@H](Cc1ccccc1)C(=O)N[C@H](CCCCN)C(=O)N[C@H](CCCCN)C(N)=O)C(C)C)[C@@H](C)CC` [C10:0-A2(dK), C10:0-IdKQVdKdKLFdKdK-NH2] (Decanoyl-I[dK]QV[dK][dK]LF[dK][dK]-NH2), for which the minimal inhibitory concentration (MIC) against C. tropicalis DBFIQ 3 is on record as 181.2 µM (≈ 256 µg/mL); in data set [1], above 90.6 µM; with P. aeruginosa ATCC 27853 it was 1.6 µM (≈ 2.26 µg/mL); against C. albicans PEEC 2, 90.6 µM (≈ 128 µg/mL); in the data set on E. faecalis ATCC 29212, above 90.6 µM; in the data set with S. aureus ATCC 25923 it was above 90.6 µM. Further, the MIC with E. coli ATCC 35218 came to 22.6 µM (≈ 31.9 µg/mL). In the data set on trypsin, the “retained inhibition activity against S. aureus strain ATCC 25923” value was 80%. In addition, the “MIC Average Yeast” value in the data set with Yeast (24 h) was 135.9 µM (≈ 192 µg/mL). In addition, the “TI Yeast, HC50/MIC average” value in the data set on Yeast (setting [2]) was 2.9. Also, the IC50 with HeLa cells was above 400 µM. The compound also displayed a retained antimicrobial activity in the data set with chymotrypsin (after 3 h of treatment) of 75%. Further, in the data set with chymotrypsin (after more than 3 h of treatment, in words), the residual antimicrobial activity result was “total loss of activity”. Besides, the “HC50 ± SD” value in the data set with Human erythrocytes was above 400 µM. In the data set on Gram (−) bacteria (average over Gram (−) strains), the “MIC Average Bacteria Gram (−)” value turned out to be 12.1 µM (≈ 17.1 µg/mL). Also, in the data set on Gram (−) bacteria (setting [2]), the “TI Bacteria Gram (−), HC50/MIC average” value turned out to be 33.1. Further, in the data set with Gram (+) bacteria (average over Gram (+) strains), the “MIC Average Bacteria Gram (+)” value is listed as above 90.6 µM. Further, the “TI Bacteria Gram (+), HC50/MIC average” value in the data set on Gram (+) bacteria (setting [2]) was below 4.4.
